Measured values from PubChem BioAssay (NCI).
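A five-concentration, 48-hour dose response in 96-well plates underlies each endpoint, interpolated linearly between surrounding concentrations. Here, GI50 denotes the concentration required for 50% inhibition of growth. Definition used: TGI = concentration required for complete inhibition of growth.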

Legend:
Experiment in all cases: growth of human tumour cells (NCI), 48 h
NCI-H23 lung = system: NCI-H23 lung
NCI-H460 lung = system: NCI-H460 lung
NCI-H522 lung = system: NCI-H522 lung
NCI/ADR-RES ovarian = system: NCI/ADR-RES ovarian
OVCAR-3 ovarian = system: OVCAR-3 ovarian
OVCAR-4 ovarian = system: OVCAR-4 ovarian
OVCAR-5 ovarian = system: OVCAR-5 ovarian
OVCAR-8 ovarian = system: OVCAR-8 ovarian
PC-3 prostate = system: PC-3 prostate
RPMI-8226 leukemia = system: RPMI-8226 leukemia
RXF 393 renal = system: RXF 393 renal
SF-268 CNS = system: SF-268 CNS
SF-295 CNS = system: SF-295 CNS
SF-539 CNS = system: SF-539 CNS
SK-MEL-2 melanoma = system: SK-MEL-2 melanoma
SK-MEL-28 melanoma = system: SK-MEL-28 melanoma
SK-MEL-5 melanoma = system: SK-MEL-5 melanoma
SK-OV-3 ovarian = system: SK-OV-3 ovarian
SN12C renal = system: SN12C renal
SNB-19 CNS = system: SNB-19 CNS
SNB-75 CNS = system: SNB-75 CNS
SR leukemia = system: SR leukemia
SW-620 colon = system: SW-620 colon
T-47D breast = system: T-47D breast
TK-10 renal = system: TK-10 renal
U251 CNS = system: U251 CNS
UACC-257 melanoma = system: UACC-257 melanoma
UACC-62 melanoma = system: UACC-62 melanoma
UO-31 renal = system: UO-31 renal

With `Nc1nccc2c1ccn2-c1cccc(NC(=O)c2ccc(N3CCOCC3)c(C(F)(F)F)c2)c1` the TGI (NCI-H23 lung) was 14700 nM, the GI50 (NCI-H460 lung) was 297 nM and the TGI (NCI-H460 lung) was 5420 nM. For the same molecule, the GI50 (NCI-H522 lung) was 288 nM, the TGI (NCI-H522 lung) was 2450 nM and the GI50 (NCI/ADR-RES ovarian) was 361 nM. It also gave a TGI (NCI/ADR-RES ovarian) of over 10200 nM, a GI50 (OVCAR-3 ovarian) of 318 nM and a TGI (OVCAR-3 ovarian) of 1410 nM. For the same molecule, the GI50 (OVCAR-4 ovarian) was 1770 nM, the TGI (OVCAR-4 ovarian) was over 36100 nM and the GI50 (OVCAR-5 ovarian) was 1840 nM. For the same molecule, the TGI (OVCAR-5 ovarian) was over 50000 nM, the GI50 (OVCAR-8 ovarian) was 1340 nM and the TGI (OVCAR-8 ovarian) was 10300 nM. It also gave a GI50 (PC-3 prostate) of 565 nM, a TGI (PC-3 prostate) of 15000 nM and a GI50 (RPMI-8226 leukemia) of 992 nM. The TGI (RPMI-8226 leukemia) was 4980 nM, the GI50 (RXF 393 renal) was 213 nM and the TGI (RXF 393 renal) was 876 nM. For the same molecule, the GI50 (SF-268 CNS) was 1210 nM, the TGI (SF-268 CNS) was over 46700 nM and the GI50 (SF-295 CNS) was 371 nM. It also gave a TGI (SF-295 CNS) of 1850 nM, a GI50 (SF-539 CNS) of 1020 nM and a TGI (SF-539 CNS) of 4000 nM. It also gave a GI50 (SK-MEL-2 melanoma) of 584 nM, a TGI (SK-MEL-2 melanoma) of 2940 nM and a GI50 (SK-MEL-28 melanoma) of 1060 nM. It also gave a TGI (SK-MEL-28 melanoma) of over 47500 nM, a GI50 (SK-MEL-5 melanoma) of 386 nM and a TGI (SK-MEL-5 melanoma) of 1750 nM. For the same molecule, the GI50 (SK-OV-3 ovarian) was 741 nM, the TGI (SK-OV-3 ovarian) was 6520 nM and the GI50 (SN12C renal) was 1910 nM. The TGI (SN12C renal) was over 50000 nM, the GI50 (SNB-19 CNS) was 1580 nM and the TGI (SNB-19 CNS) was over 50000 nM. For the same molecule, the GI50 (SNB-75 CNS) was 307 nM, the TGI (SNB-75 CNS) was 2250 nM and the GI50 (SR leukemia) was 205 nM. For the same molecule, the TGI (SR leukemia) was over 11300 nM, the GI50 (SW-620 colon) was 490 nM and the TGI (SW-620 colon) was over 50000 nM. For the same molecule, the GI50 (T-47D breast) was 1980 nM, the TGI (T-47D breast) was 29900 nM and the GI50 (TK-10 renal) was 1560 nM. The TGI (TK-10 renal) was 17300 nM, the GI50 (U251 CNS) was 664 nM and the TGI (U251 CNS) was 9350 nM. For the same molecule, the GI50 (UACC-257 melanoma) was 2080 nM, the TGI (UACC-257 melanoma) was 31100 nM and the GI50 (UACC-62 melanoma) was 429 nM. For the same molecule, the TGI (UACC-62 melanoma) was 6120 nM, the GI50 (UO-31 renal) was 1200 nM and the TGI (UO-31 renal) was 14000 nM.
